# From US5574166A, “Crystalline form of 2-(2-hydroxy-3-α-cumyl-5-tert-octylphenyl)-2H-benzotriazole” (Ciba-Geigy Corporation, priority 1995, dated 1996)
# Entries after “also recorded” stand apart in the source; their conditions may differ.
# Columns and labels:
# [1] = Photostability of UV absorber in gelatine layer on polyester base (Example 21); assay type: physicochemical; details: for photostability (in words): 30-120 kJ/cm^2 exposure; for Dmax (maximum density in the range 330-380 nm): before exposure, gelatine layer
# Procedure: The amount of UV absorber shown in the table below is dissolved in 2 ml of ethyl acetate. 1 ml of this solution is mixed with 9 ml of an aqueous gelatine solution [comprising 27.6 g/l of gelatine and 6.8 g/l of an 8% aqueous solution of 4,8-diisobutylnaphthalene-2-sulfonic acid (sodium salt) as wetting agent]. This mixture is emulsified for 3 minutes by means of ultrasound. 7.5 ml of this UV absorber emulsion are mixed with 4.5 ml of an aqueous curing agent solution (comprising 0.24% of 2-hydroxy-4,6-dichloro-s-triazine, potassium salt). 8 ml of this emulsion are poured onto a polyester base (13×18 cm). The casting is cured for 7 days at room temperature. A UV spectrometer is then used to determine the values for the maximum density in the range from 330-380 nm. The sample is then exposed in an Arias exposure unit with a total of 30, 60, 90 and 120 kJ/cm^2, the maximum density is remeasured, and the difference (-ΔD in %) between the corresponding values is calculated.
# [2] = Solubility of benzotriazole UV absorbers in organic solvents (percent solids of saturated filtrate, ASTM D 2369-81); details: for Solubility in organic solvents (in words): organic / coatings solvents
# Procedure: The relative solubility of three different benzotriazole UV absorbers in a five typical organic solvents is measured by dissolving the benzotriazole UV absorber in 50-100 mL of five different solvents till the solutions become supersaturated. This is seen when the benzotriazole begins to settle to the bottom of the test flask. The supersaturated solutions are allowed to remain undisturbed overnight. Then, the top layer is decanted and filtered. […] The higher the percent solids found indicates a more soluble benzotriazole.
# [3] = Handling properties and storage stability of the solid form; assay type: physicochemical; details: apparent density
# [4] = Volatility of UV absorber; assay type: physicochemical; details: long-term coating uses
# [5] = Light stabilization effectiveness (general statement); details: versus 2-[2-hydroxy-3,5-di(α-cumyl)phenyl]-2H-benzotriazole
# [6] = EXXATE ® 600 (hexyl acetate from Exxon)
# [7] = PM acetate (1-methoxy-2-propyl acetate)
# [8] = PM solvent (1-methoxy-2-propanol)
Compound,photostability (in words) [1],ΔD in % ([1]; 30 KJ exposure (kJ/cm^2)),ΔD in % ([1]; 60 KJ exposure (kJ/cm^2)),ΔD in % ([1]; 90 KJ exposure (kJ/cm^2)),ΔD in % ([1]; 120 KJ exposure (kJ/cm^2)),Dmax (maximum density in the range 330-380 nm) [1],Solubility in organic solvents (in words) [2],"Solubility [2, 6]","Solubility [2, 7]",Solubility ([2]; butyl acetate),Solubility ([2]; methyl amyl ketone),Solubility ([2]; xylene),volatility [4],other results
"CCC(C)c1cc(C(C)(C)C)cc(-n2nc3ccccc3n2)c1O (stereo not drawn) [A, 2(2-hydroxy-3-sec-butyl-5-tert-butylphenyl)-2H-benzotriazole]","not as photostable as the UV absorbers D, E and F",4%,8%,16%,25%,2.0,,,,,,,,
"CCCCCCCCCCCCc1cc(C)cc(-n2nc3ccccc3n2)c1O [B, 2(2-hydroxy-3-dodecyl-5-methylphenyl)-2H-benzotriazole]","not as photostable as the UV absorbers D, E and F",5%,10%,17%,25%,2.1,,,,,,,,
"CC(C)(C)CC(C)(C)c1cc(-n2nc3ccccc3n2)c(O)c(C(C)(C)c2ccccc2)c1 [E, 2(2-hydroxy-3-cumyl-5-tert-octylphenyl)-2H-benzotriazole]",,3%,4%,5%,7%,2.0,do not suffer from the solubility limitations of UV absorber D in non-HAPS solvents,,,,,,,
"CC(C)(C)CC(C)(C)c1cc(-n2nc3ccccc3n2)c(O)c(C(C)(C)c2ccccc2)c1 [Example 2, 2-(2-Hydroxy-3-α-cumyl-5-tert-octylphenyl)-2H-benzotriazole]",,,,,,,,,,,,,,"flowability, meterability and storage stability ([3]; listed as Example 18): poor flowability, meterability and storage stability"
"CC(C)(C)CC(C)(C)c1cc(-n2nc3ccccc3n2)c(O)c(C(C)(C)c2ccccc2)c1 [Example 3, 2-(2-hydroxy-3-α-cumyl-5-tert-octylphenyl)-2H-benzotriazole]",,,,,,,essentially the same solubility parameters in the various solvents as seen in Example 13 for the new crystalline modification,,,,,,,Ease and rate of dissolution ([2]; non-HAPS solvents): dissolves much more easily and rapidly in the non-HAPS solvents; Solubility in organic solvents (in words) ([2]; listed as amorphous modification): excellent solubility characteristics
"CCCCCCCCCc1cc(-n2nc3ccccc3n2)c(O)c(C(C)(C)c2ccccc2)c1 [Example 4, 2-(2-Hydroxy-3-α-cumyl-5-nonylphenyl)-2H-benzotriazole]",,,,,,,,> 50 grams/100 solvent,> 50 grams/100 solvent,> 50 grams/100 solvent,> 50 grams/100 solvent,> 50 grams/100 solvent,,Solubility ([2]; acetone): > 50 grams/100 solvent
"CC(C)(C)CC(C)(C)c1cc(-n2nc3ccccc3n2)c(O)c(C(C)(C)c2ccccc2)c1 [Example 7, 2-(2-hydroxy-3-α-cumyl-5-tert-octylphenyl)-2H-benzotriazole]",,,,,,,soluble in environmentally friendly solvents,22 grams/100 solvent,14 grams/100 solvent,33 grams/100 solvent,33 grams/100 solvent,76 grams/100 solvent,same low volatility,"light stabilization effectiveness [5]: superior light stabilization effectiveness; flowability, meterability and storage stability ([3]; listed as compound of formula I): acceptable properties in respect to handling, apparent density, flowability, meterability and storage stability; Solubility [2, 8]: 4 grams/100 solvent"
"CCCCCCCCCCCCc1cc(-n2nc3ccccc3n2)c(O)c(C(C)(C)c2ccccc2)c1 [Example 10, 2-(2-Hydroxy-3-α-cumyl-5-dodecylphenyl)-2H-benzotriazole]",,2%,4%,5%,8%,1.9,do not suffer from the solubility limitations of UV absorber D in non-HAPS solvents,> 50 grams/100 solvent,> 50 grams/100 solvent,> 50 grams/100 solvent,> 50 grams/100 solvent,> 50 grams/100 solvent,,Solubility ([2]; acetone): > 50 grams/100 solvent
"CC(C)(c1ccccc1)c1cc(-n2nc3ccccc3n2)c(O)c(C(C)(C)c2ccccc2)c1 [UV absorber A, 2(2-hydroxy-3,5-di-cumylphenyl)-2H-benzotriazole]",no more stable than are UV absorbers E and F,0%,5%,,,1.9,,4 grams/100 solvent,3 grams/100 solvent,6 grams/100 solvent,4 grams/100 solvent,14 grams/100 solvent,excellent non-volatility,"Solubility in organic solvents (in words) ([2]; listed as 2-(2-hydroxy-3,5-di-α-cumylphenyl)-2H-benzotriazole): relatively insoluble; also recorded: sparingly soluble; Solubility in organic solvents (in words) ([2]; listed as 2-[2-hydroxy-3,5-di(α-cumyl)phenyl]-2H-benzotriazole): sparingly soluble in environmentally more friendly solvents; solubility in toluene or xylene ([2]; toluene or xylene): about 14 % by weight; soluble at level in xylene ([2]; xylene): ~14 % (by weight)"
CCC(C)(C)c1cc(-n2nc3ccccc3n2)c(O)c(C(C)(C)CC)c1 [UV absorber B],"not as photostable as the UV absorbers D, E and F",4%,7%,12%,24%,2.1,clearly quite soluble even in the solvents other then xylene,24 grams/100 solvent,10 grams/100 solvent,27 grams/100 solvent,24 grams/100 solvent,54 grams/100 solvent,too volatile for long term coating uses,"Solubility [2, 8]: 4 grams/100 solvent"
